Test results from patent US7514443B2, “Substituted pyrazolo[1,5-a]pyrimidines as inhibitors of metabotropic glutamate receptors” (Hoffmann-La Roche Inc., priority 2003, dated 2009).

Row | SMILES | melting point
1 | Cc1ccc(-c2cc(C(F)(F)F)n3cnc(C#N)c3n2)cc1 [Example 5.4, 2-(4-Methyl-phenyl)-4-trifluoromethyl-imidazo[1,5-a]pyrimidine-8-carbonitrile] | 197 °C
2 | COc1ccc(-c2cc(C(F)(F)F)n3cnc(C#N)c3n2)cc1 [Example 5.5, 2-(4-Methoxy-phenyl)-4-trifluoromethyl-imidazo[1,5-a]pyrimidine-8-carbonitrile] | 192 °C
3 | N#Cc1ncn2c(C(F)(F)F)cc(-c3ccccc3Cl)nc12 [Example 5.6, 2-(2-Chloro-phenyl)-4-trifluoromethyl-imidazo[1,5-a]pyrimidine-8-carbonitrile] | 180 °C
4 | N#Cc1ncn2c(C(F)(F)F)cc(-c3ccc(Cl)cc3Cl)nc12 [Example 5.7, 2-(2,4-Dichloro-phenyl)-4-trifluoromethyl-imidazo[1,5-a]pyrimidine-8-carbonitrile] | 139 °C
5 | Cc1ccccc1-c1cc(C(F)(F)F)n2cnc(C#N)c2n1 [Example 5.8, 2-(2-Methyl-phenyl)-4-trifluoromethyl-imidazo[1,5-a]pyrimidine-8-carbonitrile] | 151 °C
6 | Cc1cccc(-c2cc(C(F)(F)F)n3cnc(C#N)c3n2)c1 [Example 5.9, 2-(3-Methyl-phenyl)-4-trifluoromethyl-imidazo[1,5-a]pyrimidine-8-carbonitrile] | 202 °C
7 | N#Cc1ncn2c(C(F)(F)F)cc(-c3ccc(C(F)(F)F)cc3)nc12 [Example 5.10, 2-(4-Trifluoromethyl-phenyl)-4-trifluoromethyl-imidazo[1,5-a]pyrimidine-8-carbonitrile] | 236 °C
8 | N#Cc1ncn2c(C(F)(F)F)cc(-c3cccc(C(F)(F)F)c3)nc12 [Example 5.11, 2-(3-Trifluoromethyl-phenyl)-4-trifluoromethyl-imidazo[1,5-a]pyrimidine-8-carbonitrile] | 202 °C
9 | Cc1ccc(-c2cc(C(F)(F)F)n3cnc(C#N)c3n2)cc1C(F)(F)F [Example 5.22, 2-(4-Methyl-3-trifluoromethyl-phenyl)-4-trifluoromethyl-imidazo[1,5-a]pyrimidine-8-carbonitrile] | 220 °C
10 | Cc1cc(-c2cc(C(F)(F)F)n3cnc(C#N)c3n2)ccc1C(F)(F)F [Example 5.23, 2-(3-Methyl-4-trifluoromethyl-phenyl)-4-trifluoromethyl-imidazo[1,5-a]pyrimidine-8-carbonitrile] | 217 °C
11 | N#Cc1ncn2c(C(F)(F)F)cc(-c3ccc(OCC(F)(F)F)c(C(F)(F)F)c3)nc12 [Example 5.24, 2-(4-Trifluoroethoxy-3-trifluoromethyl-phenyl)-4-trifluoromethyl-imidazo[1,5-a]pyrimidine-8-carbonitrile] | 189 °C
12 | N#Cc1ncn2c(C(F)(F)F)cc(-c3ccccn3)nc12 [Example 5.25, 2-Pyridin-2-yl-4-trifluoromethyl-imidazo[1,5-a]pyrimidine-8-carbonitrile] | 205 °C
13 | N#Cc1ncn2c(C(F)(F)F)cc(-c3cccnc3)nc12 [Example 5.26, 2-Pyridin-3-yl-4-trifluoromethyl-imidazo[1,5-a]pyrimidine-8-carbonitrile] | 222 °C
14 | N#Cc1ncn2c(C(F)(F)F)cc(-c3ccncc3)nc12 [Example 5.27, 2-Pyridin-4-yl-4-trifluoromethyl-imidazo[1,5-a]pyrimidine-8-carbonitrile] | 254 °C
15 | Cc1cc(-c2cc(C(F)(F)F)n3ncc(-c4ccnc(CO)c4)c3n2)ccc1C(F)(F)F [Example 6.2, 5-(3-Methyl-4-trifluoromethyl-phenyl)-3-(2-hydroxymethyl-pyridin-4-yl)-7-trifluoromethyl-pyrazolo[1,5-a]pyrimidine] | 231 °C
16 | Cc1cc(-c2cc(C(F)(F)F)n3ncc(-c4ccnc(CO)c4)c3n2)ccc1Cl [Example 6.3, {4-[5-(4-Chloro-3-methyl-phenyl)-7-trifluoromethyl-pyrazolo[1,5-a]pyrimidin-3-yl]-pyridin-2-yl}-methanol] | 220 °C
17 | OCc1cc(-c2cnn3c(C(F)(F)F)cc(-c4ccc(Cl)c(Cl)c4)nc23)ccn1 [Example 6.4, {4-[5-(3,4-Dichloro-phenyl)-7-trifluoromethyl-pyrazolo[1,5-a]pyrimidin-3-yl]-pyridin-2-yl}-methanol] | 233 °C

Further lines, results first:

Row | melting point | SMILES
18 | 206 °C | FC(F)(F)c1cc(-c2ccc(Cl)cc2)nc2c(-c3cccnc3)ncn12 [Example 8.2, 2-(4-Chloro-phenyl)-8-pyridin-3-yl-4-trifluoromethyl-imidazo[1,5-a]pyrimidine]
19 | 188 °C | Fc1ccc(-c2cc(C(F)(F)F)n3cnc(-c4cccnc4)c3n2)cc1Cl [Example 8.3, 2-(3-Chloro-4-fluoro-phenyl)-8-pyridin-3-yl-4-trifluoromethyl-imidazo[1,5-a]pyrimidine]
20 | 194 °C | FC(F)(F)c1cccc(-c2cc(C(F)(F)F)n3cnc(-c4cccnc4)c3n2)c1 [Example 8.5, 8-Pyridin-3-yl-4-trifluoromethyl-2-(3-trifluoromethyl-phenyl)-imidazo[1,5-a]pyrimidine]
21 | 231 °C | FC(F)(F)c1ccc(-c2cc(C(F)(F)F)n3cnc(-c4cccnc4)c3n2)cc1 [Example 8.6, 8-Pyridin-3-yl-4-trifluoromethyl-2-(4-trifluoromethyl-phenyl)-imidazo[1,5-a]pyrimidine]
22 | 236 °C | Cc1ccc(-c2cc(C(F)(F)F)n3cnc(-c4cccnc4)c3n2)cc1C(F)(F)F [Example 8.7, 2-(4-Methyl-3-trifluoromethyl-phenyl)-8-pyridin-3-yl-4-trifluoromethyl-imidazo[1,5-a]pyrimidine]
23 | 173 °C | Cc1cc(-c2cc(C(F)(F)F)n3cnc(-c4cccnc4)c3n2)ccc1C(F)(F)F [Example 8.8, 2-(3-Methyl-4-trifluoromethyl-phenyl)-8-pyridin-3-yl-4-trifluoromethyl-imidazo[1,5-a]pyrimidine]
24 | 290 °C | FC(F)(F)c1cc(-c2ccc(Cl)cc2)nc2c(-c3ccncc3)ncn12 [Example 8.9, 2-(4-Chloro-phenyl)-8-pyridin-4-yl-4-trifluoromethyl-imidazo[1,5-a]pyrimidine]
25 | 254 °C | Cc1cc(-c2cc(C(F)(F)F)n3cnc(-c4ccncc4)c3n2)ccc1Cl [Example 8.10, 2-(4-Chloro-3-methyl-phenyl)-8-pyridin-4-yl-4-trifluoromethyl-imidazo[1,5-a]pyrimidine]
26 | 266 °C | Fc1ccc(-c2cc(C(F)(F)F)n3cnc(-c4ccncc4)c3n2)cc1Cl [Example 8.11, 2-(3-Chloro-4-fluoro-phenyl)-8-pyridin-4-yl-4-trifluoromethyl-imidazo[1,5-a]pyrimidine]
27 | 258 °C | FC(F)(F)c1cccc(-c2cc(C(F)(F)F)n3cnc(-c4ccncc4)c3n2)c1 [Example 8.13, 8-Pyridin-4-yl-4-trifluoromethyl-2-(3-trifluoromethyl-phenyl)-imidazo[1,5-a]pyrimidine]
28 | 240 °C | FC(F)(F)c1ccc(-c2cc(C(F)(F)F)n3cnc(-c4ccncc4)c3n2)cc1 [Example 8.14, 8-Pyridin-4-yl-4-trifluoromethyl-2-(4-trifluoromethyl-phenyl)-imidazo[1,5-a]pyrimidine]
